Consider one compound from the NIST ThermoML archive (doi:10.1016/j.tca.2018.10.003).

For this data set the following is noted: Crystal; DSC.

Numbers after ± are expanded uncertainties.

Take `O=C(OOC(=O)c1ccccc1)c1ccccc1` [benzoyl peroxide]: the Triple point temperature is reported as 377.75 ± 4.1 K.
